# Data published in patent US6967075B2 (priority 2000, dated 2005).
# Entries after “also recorded” stand apart in the source; their conditions may differ.
# Biological target: T1, HCV NS5B (Hepatitis C virus genotype 1b, UniProt P26663)
# Assay: not given
# Type: biochemical
# Details: not given
# Target sequence in this assay (P26663 2420-2989 limits assumed): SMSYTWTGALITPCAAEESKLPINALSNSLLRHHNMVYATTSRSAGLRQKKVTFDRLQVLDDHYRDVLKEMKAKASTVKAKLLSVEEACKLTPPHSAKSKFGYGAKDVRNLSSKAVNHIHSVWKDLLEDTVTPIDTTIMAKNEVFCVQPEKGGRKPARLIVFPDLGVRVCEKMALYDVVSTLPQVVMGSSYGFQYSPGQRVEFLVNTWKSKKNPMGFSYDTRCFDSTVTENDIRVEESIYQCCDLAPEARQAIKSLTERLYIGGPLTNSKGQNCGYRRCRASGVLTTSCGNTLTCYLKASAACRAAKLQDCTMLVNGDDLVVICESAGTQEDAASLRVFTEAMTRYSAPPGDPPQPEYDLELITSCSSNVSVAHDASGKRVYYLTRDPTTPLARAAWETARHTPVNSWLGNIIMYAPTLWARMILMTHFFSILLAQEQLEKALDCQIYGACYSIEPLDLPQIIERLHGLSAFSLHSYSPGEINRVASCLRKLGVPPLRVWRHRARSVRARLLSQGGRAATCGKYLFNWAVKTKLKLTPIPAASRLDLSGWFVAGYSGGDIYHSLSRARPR
row,Compound,extension/utilization of end-labeled RNA
1,"5′ GCA UGG GCC C 3′ [sym/sub RNA, reference compound]",no primer extension was observed

# Biological target: HCV NS5B replicase (Hepatitis C virus genotype 1b, UniProt P26663)
# Assay: not given
# Details: cited from earlier work
# Sequence of HCV NS5B replicase (P26663 2420-3010 limits assumed): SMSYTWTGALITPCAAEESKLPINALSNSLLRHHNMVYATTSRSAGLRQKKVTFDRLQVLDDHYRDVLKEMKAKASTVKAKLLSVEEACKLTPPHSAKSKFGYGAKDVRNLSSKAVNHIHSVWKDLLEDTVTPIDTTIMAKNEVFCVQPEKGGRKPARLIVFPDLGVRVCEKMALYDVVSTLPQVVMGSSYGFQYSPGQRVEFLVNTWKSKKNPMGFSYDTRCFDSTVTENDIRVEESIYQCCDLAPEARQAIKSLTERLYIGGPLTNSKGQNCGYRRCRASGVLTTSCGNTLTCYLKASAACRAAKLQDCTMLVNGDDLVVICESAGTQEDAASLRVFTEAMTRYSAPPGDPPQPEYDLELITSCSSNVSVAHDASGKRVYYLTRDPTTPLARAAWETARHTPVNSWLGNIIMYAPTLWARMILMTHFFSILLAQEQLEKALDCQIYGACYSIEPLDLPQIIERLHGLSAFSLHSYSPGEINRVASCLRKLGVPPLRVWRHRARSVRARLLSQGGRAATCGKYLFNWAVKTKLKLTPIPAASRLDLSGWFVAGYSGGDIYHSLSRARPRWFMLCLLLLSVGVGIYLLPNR
row,Compound,inhibition of HCV NS5B replicase
1,"CN1C(=O)[C@]23CC4=CC=C[C@H](O)[C@H]4N2C(=O)[C@@]1(CO)SS3 [Gliotoxin, gliotoxin]",inhibits HCV NS5B replicase in a dose dependent manner

# Biological target: poliovirus 3D RdRp (Poliovirus type 1, UniProt P03300)
# Assay: not given
# Details: cited from earlier work
# Sequence of poliovirus 3D RdRp (P03300 1749-2209 limits assumed): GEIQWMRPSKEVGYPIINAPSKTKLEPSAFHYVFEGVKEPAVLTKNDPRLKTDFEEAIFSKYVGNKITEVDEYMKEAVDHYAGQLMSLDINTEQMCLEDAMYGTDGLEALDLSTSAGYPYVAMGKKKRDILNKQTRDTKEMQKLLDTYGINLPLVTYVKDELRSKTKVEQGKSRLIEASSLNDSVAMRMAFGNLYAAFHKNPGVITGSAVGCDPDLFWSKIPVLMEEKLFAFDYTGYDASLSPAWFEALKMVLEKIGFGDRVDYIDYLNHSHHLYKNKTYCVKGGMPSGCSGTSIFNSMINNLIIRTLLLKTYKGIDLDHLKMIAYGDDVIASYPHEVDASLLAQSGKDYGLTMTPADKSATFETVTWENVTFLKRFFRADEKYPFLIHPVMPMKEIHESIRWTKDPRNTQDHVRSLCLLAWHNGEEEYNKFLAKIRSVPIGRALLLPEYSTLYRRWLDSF
row,Compound,inhibition of poliovirus 3D RdRp
1,"CN1C(=O)[C@]23CC4=CC=C[C@H](O)[C@H]4N2C(=O)[C@@]1(CO)SS3 [Gliotoxin, gliotoxin]",known poliovirus 3D RdRp inhibitor

# Biological target: T1, HCV NS5B
# Assay: Nucleotide incorporation assay using end-labeled primers
# Type: biochemical
# Details: 5 μM template, 10 μM end-labeled primer, 100 μM NTP, 30° C. for 30 min
# Experimental: Nucleotide incorporation assay using end-labeled primers. A standard nucleotide incorporation reaction was performed in a 20 μl volume, containing 50 mM HEPES (pH 7.3), 10 mM β-mecaptoethanol, 50 mM NaCl, 5 mM MgCl2, 5 μM of template RNA, 10 μM of end-labeled primer, 3 to 5 μM of polymerase protein and 100 μM of NTP substrate, as described. Single nucleotide incorporation by HCV replicase was tested using radiolabeled diguanylate (^33pGpG) as a primer and three RNA templates corresponding to SEQ ID NO: 11 [(ACC)7], SEQ ID NO: 9 [(tJCC)7], and SEQ ID NO: 10 [(GCC)7]. Reactions involved ^33pGpG primer alone and with (1) (ACC)7 RNA as the template plus either no NTP, 100 μM UTP or 100 μM ATP, (2) (UCC)7 RNA as the template plus either no NTP, 100 μM ATP or 100 μM CTP, and (3) (GCC)7 RNA as the template plus either no NTP, 100 μM CTP or 100 μM ATP. To show the efficiency of guanylate primers of different length in priming nucleotide incorporation, four template-primer pairs were tested in a standard primer-extension assay: […] (SEQ ID NO: 10)/^33pGG; […] (SEQ ID NO: 12)/^33pGGG; […],(SEQ ID NO-13)/^33pGGGG (SEQ ID NO: 32); and […] (SEQ ID NO: 7)/^33pGpqGG (SEQ ID NO: 33). Reactions were performed using 100 μM of CTP or without a nucleotide substrate.
# Reactions contained (UCC)7 alone, (UCC)7 plus 100 μM of ATP, (UCC)6AAA alone, or (UCC)6AAA plus 100 μM of ATP. In addition, RNAs of SEQ ID NOS: 11, 30 and 31 were tested for single-nucleotide incorporation with ^33pGpG as the primer.
# To show the minimum length requirement for a template RNA of the invention RNA templates of decreasing length (21 to 4-nt), e.g., SEQ ID NOS: 8 and 14-20 were tested for the ability to direct single-nucleotide incorporation using ^33pGpG as the primer. All reactions contained 100 μM of ATP and one template RNA. Multiple cycles of nucleotide incorporation were performed using a 10-mer RNA and ^33pGpG as the primer. Reactions contained either 100 μM of ATP alone, or 100 μM each of ATP and CTP, or 100 μM each of ATP, CTP and GTP. The reactions were quenched at different times from 15 to 900 seconds.
# Various dinucleotide primers for RNA synthesis and nucleotide incorporation using HCV 3′ terminal sequences as template were used. The following RNA templates were used: 5′ AAAAAACAGUCC 3′ (SEQ ID NO: 17), 5′ AAAACAGUGC 3′ (SEQ ID NO: 21), 5′ AAAAAACAGUCG 3′ (SEQ ID NO: 22), 5′ AAAAAACAGUGG 3′ (SEQ ID NO: 23), 5′ AAAAAACAGUAC 3′ (SEQ ID NO: 24), 5′ AAAAAACAGUCA 3′ (SEQ ID NO: 25), which differ by two residues at the 3′ terminal positions. Dinucleotide primers, ^33pGpG, ^33pGpC, ^33pCpG, ^33pCpC, ^33pGpU and ^33pUpG, were paired with respective templates in the absence or presence of 100 μM ATP substrate. RNA templates, 3′(+) and 3′(−), consisted of the 3′ terminal sequences of positive-strand and negative-strand HCV genome, respectively. Primers ^33pApC and ^33pGpC were used for 3′(+) and 3′(−) RNA, respectively, in the absence of nucleotide substrate and in the presence of ATP or CTP.
# Reaction mixtures were incubated at 30° C. for 30 min, followed by phenol and chloroform extraction and ethanol precipitation in the presence of glycogen carrier. Product was dissolved in a urea/TBE sample buffer (Novex, San Diego, Calif.) and separated on a 23 to 25% PAGE/6 M Urea/1× TBE gel. The gel was then covered with plastic wrap and exposed to an X-ray film.
row,Compound,nucleotide incorporation (extension of end-labeled primer)
1,"5′ ACCACCACCACCACCACCACC 3′ (ACCACCACCACCACCACCACC; RNA, backbone not given here) [(ACC)7]",single nucleotide incorporation was observed only when UTP was used
2,"5′ AUC AGG GGG CUG GC 3′ (AUCAGGGGGCUGGC; RNA, backbone not given here) [SEQ ID NO: 27, 3′ terminus of HCV negative-strand RNA genome]",single-nucleotide incorporation was detected; also recorded: higher overall activity
3,"5′ C ACCACCACCACCACCACCAC 3′ (CACCACCACCACCACCACCAC; RNA, backbone not given here) [SEQ ID NO: 31]",significant reduction in activity
4,"5′ CC ACC ACC ACC ACC ACC ACCA 3′ (CCACCACCACCACCACCACCA; RNA, backbone not given here) [SEQ ID NO: 30]",significant reduction in activity
5,"5′ GCCGCCGCCGCCGCCGCCGCC 3′ (GCCGCCGCCGCCGCCGCCGCC; RNA, backbone not given here) [(GCC)7]","only the correct nucleotide, ATP or CTP, resulted in primer extension"
6,"5′ UCCUCCUCCUCCUCCUCCUCC 3′ (UCCUCCUCCUCCUCCUCCUCC; RNA, backbone not given here) [(UCC)7]","only the correct nucleotide, ATP or CTP, resulted in primer extension"
7,"5′ UCU GCA GAU CAU GU 3′ (UCUGCAGAUCAUGU; RNA, backbone not given here) [SEQ ID NO: 26, 3′ terminus of HCV positive-strand RNA genome]",single-nucleotide incorporation was detected
8,GGG [^33pGGG],supported nucleotide incorporation with the highest efficiency
9,"GGGG (5' 33P label, further chemistry not given here) [^33pGGGG]",detrimental to the activity
10,"GGGGG (RNA, backbone not given here; further chemistry not fully specified) [^33pGGGGG]",detrimental to the activity
11,pGpC [GC],capable of priming nucleotide (AMP) incorporation
12,pGpG [GG],capable of priming nucleotide (AMP) incorporation

# Same assay, conditions: 5 μM template, 10 μM end-labeled primer, 100 μM NTP, 30° C. for 30 min; listed as 33pGG
row,Compound,nucleotide incorporation (extension of end-labeled primer)
1,pGpG [GG],supported nucleotide incorporation with the highest efficiency
